What all share (type): cell-based
Experiment [1] relates to BT474 breast tumor cell line. Kind of experiment: MTS assay / secondary assay of killing tumor cells, BT474. The note with it: Homo sapiens, BT-474. Here is the method: (§1) The difference in potency index between alkynes and non-alkynes measured by a secondary assay is also striking. The secondary assay measures the efficiency of killing tumor cells. […] EC50 is defined as the amount of compound added to effect a 50% reduction in viable cell number. Selected compounds were tested on cells of MCF7 and BT474 breast tumor cell lines. […] TABLE 2 summarized the result of the assay.
(§2) 3-(4,5-dimethylthiazol-2-yl)-5-(3-carboxymethoxyphenyl)-2-(4-sulfophenyl)-2H-tetrazolium assays measure the cytotoxicity of geldanamycin derivatives. MTS (3-(4,5-dimethylthiazol-2-yl) -5-(3-carboxymethoxyphenyl)-2-(4-sulfophenyl)-2H-tetrazolium) is a tetrazolium dye that is converted to a formazan product by dehydrogenase enzymes of metabolically active cells (Corey, A. et al. “Use of an aqueous soluble tetrazolium/formazan assay for cell growth assays in culture,” Cancer Commun. 1991, 3, 207-212). Cells were seeded in 96 well plates at 2000 cells/well and allowed to adhere overnight in Dulbecco's modified Eagle's medium supplemented with 10% fetal bovine serum. The final culture volume was 100 μl. Viable cell number was determined by using the Celltiter 96 AQueous Non-radioactive Cell Proliferation Assay (Promega, Madison Wis.). The MTS/PMS (phenazine methosulfate) solution was mixed at a ratio of 20:1, and 20 μL was added per well to 100 μl of culture medium. After 2-4 hours, the formation of the formazan product was measured at 490 nm absorbance using a multiwell plate spectrophotometer. Background was determined by measuring the Abs 490 nm of cell culture medium and MTS-PMS in the absence of cells and was subtracted from all values. Percent viable cells was calculated as follows: % viable cells=(Abs at 490 nm treated cells/Abs at 490 nm untreated cells)×100
In general terms: Tetrazolium dyes change colour on reduction, which living cells bring about.

In experiment [2] the test system is MCF7 breast carcinoma cells. As to the kind of experiment: MTS assay / secondary assay of killing tumor cells, MCF7. The note with it: for pIC50: Homo sapiens, MCF7. On the procedure:
as §1, §2
The effect of selected compounds of the invention on MCF7 breast carcinoma cells according to the MTS assay is summarized in table 3. IC50 was defined as the concentration of the compound which gave rise to 50% reduction in viable cell number.

A further experiment has as its system HER2/Neu protein. Kind of experiment: Her2 degradation assay. The note with it: MCF7 cells, 16 h. From the text:
[drawing 219] wherein R^3′ is not alkynyl, which were disclosed in U.S. patent application Ser. No. 10/945,851 and PCT Application US04/31248. The pyrrolopyrimidine compounds specified in the EXAMPLE sections of the above patent applications carry either no substituent or a substituted alkyl group. […] A simple alkyl or a substituted alkyl at C-5 (ie R^3=alkyl or substituted alkyl) can only bring two-fold additional activity. Conversely, if C-5 is alkyne substituted, the potency increases approximately 10-20 fold. (See, Series A: compounds A, B, C and D below).
Many cancers are associated with the over expression Her2 protein. It has been shown that compounds able to diminish Her2 levels show good promise as anti-cancer agents.
MCF7 breast carcinoma cells (ATCC) were grown in Dulbecco's modified Eagle's medium (DMEM) containing 10% fetal bovine serum (FBS) and 10 mM HEPES, and plated in 24 well plates (50% confluent). […] Samples were analyzed using a FACSCalibur™ flow cytometer (Becton Dickinson, San Jose, Calif.) equipped with Argon-ion laser that emits 15 mW of 488 nm light for excitation of the PE fluorochrome. […] A fluorescence histogram was generated and the mean fluorescence intensity (MFI) of each sample was determined using Cellquest software. […] Percent degradation of Her2 was calculated as follows: % Her2 degraded=[(MFI untreated cells−MFI treated cells)/MFI untreated cell]×100. […]

pIC50: −log10 of the molar value.

Broadly, the pIC50 is −log10 of the IC50, conventionally taken in molar units. A lower pIC50 goes with a large IC50.

For the compound `COc1c(C)cnc(Cn2cc(C#CCO)c3c(Cl)nc(N)nc32)c1C` [Example 1, 3-[2-amino-4-chloro-7-(4-methoxy-3,5-dimethyl-pyridin-2-ylmethyl)-7H-pyrrolo [2,3-d]pyrimidin-5-yl]-prop-2-yn-1-ol], the figures for the pIC50 (in experiment [1]; in experiment [2]; in the experiment with HER2/Neu protein) were 7.70, 6.89 and 7.92, respectively.

`COc1c(C)cnc(Cn2cc(C#CCCO)c3c(Cl)nc(N)nc32)c1C` [Example 2, 4-[2-Amino-4-chloro-7-(4-methoxy-3,5-dimethyl-pyridin-2-ylmethyl)-7H-pyrrolo[2,3-d]pyrimidin-5-yl]-but-3-yn-1-ol]: the values for the pIC50 in experiment [1] and in experiment [2] were 8.22 and 7.89, respectively.

As to `COc1c(C)cnc(Cn2cc(C#CCCCO)c3c(Cl)nc(N)nc32)c1C` [Example 3, 5-[2-Amino-4-chloro-7-(4-methoxy-3,5-dimethyl-pyridin-2-ylmethyl)-7H-pyrrolo[2,3-d]pyrimidin-5-yl]-pent-4-yn-1-ol], the pIC50 was 8.10 in experiment [1] and 7.89 in experiment [2].

As for `COc1c(C)cnc(Cn2cc(C#CCN(C(C)C)C(C)C)c3c(Cl)nc(N)nc32)c1C` [Example 5, 4-Chloro-5-(3-diisopropylamino-prop-1-ynyl)-7-(4-methoxy-3,5-dimethyl-pyridin-2-ylmethyl)-7H-pyrrolo[2,3-d]pyrimidin-2-ylamine], the negative-log IC50 (pIC50) was 7.10 in experiment [1], 7.00 in experiment [2] and 7.26 in the experiment with HER2/Neu protein.

Consider `COc1c(C)cnc(Cn2cc(C#CCCCCO)c3c(Cl)nc(N)nc32)c1C` [Example 7, 6-[2-Amino-4-chloro-7-(4-methoxy-3,5-dimethyl-pyridin-2-ylmethyl)-7H-pyrrolo[2,3-d]pyrimidin-5-yl]-hex-5-yn-1-ol], for which the negative-log IC50 (pIC50) was 7.70 in experiment [1] and 6.70 in experiment [2].

Take `CCN(CC)C(=O)CCC#Cc1cn(Cc2ncc(C)c(OC)c2C)c2nc(N)nc(Cl)c12` [Example 10]: the negative-log IC50 (pIC50) in experiment [1] is 7.30; in experiment [2] it was 6.15.

Regarding `COc1c(C)cnc(Cn2cc(C#CCCC(=O)N3CCN(C)CC3)c3c(Cl)nc(N)nc32)c1C` [Example 11], the negative logarithm of the IC50 (pIC50) in experiment [1] is 7.70; in experiment [2], 7.00.

With `COc1c(C)cnc(Cn2cc(C#CCCC(N)=O)c3c(Cl)nc(N)nc32)c1C` [Example 12, 5-[2-Amino-4-chloro-7-(4-methoxy-3,5-dimethyl-pyridin-2-ylmethyl)-7H-pyrrolo[2,3-d]pyrimidin-5-yl]-pent-4-ynoic acid amide], the figures for the pIC50 in experiment [1] and in experiment [2] were 7.70 and 7.52, respectively.

For `COc1c(C)cnc(Cn2cc(C#CCCCNC(=O)OC(C)(C)C)c3c(Cl)nc(N)nc32)c1C` [Example 15, {5-[2-Amino-4-chloro-7-(4-methoxy-3,5-dimethyl-pyridin-2-ylmethyl)-7H-pyrrolo [2,3-d]pyrimidin-5-yl]-pent-4-ynyl}-carbamic acid tert-butyl ester], the pIC50 in experiment [1] was 6.00; in experiment [2], 7.22.

For `COc1c(C)cnc(Cn2cc(C#CCCCN)c3c(Cl)nc(N)nc32)c1C` [Example 16, 5-(5-Amino-pent-1-ynyl)-4-chloro-7-(4-methoxy-3,5-dimethyl-pyridin-2-ylmethyl)-7H-pyrrolo [2,3-d]pyrimidin-2-ylamine], the pIC50 was below 5.00 in experiment [1] and 7.05 in experiment [2].

On to `COc1c(C)cnc(Cn2cc(C#CCCCN3C(=O)c4ccccc4C3=O)c3c(Cl)nc(N)nc32)c1C` [Example 17], for which the pIC50 was 7.00 in experiment [1] and 8.00 in experiment [2].

For `COc1c(C)cnc(Cn2cc(C#CCCN3CCOCC3)c3c(Cl)nc(N)nc32)c1C` [Example 18], the values for the pIC50 in experiment [1] and in experiment [2] were 6.00 and 7.30, respectively.

With `COc1c(C)cnc(Cn2cc(C#CCCCN3CCOCC3)c3c(Cl)nc(N)nc32)c1C` [Example 19], the pIC50 is 6.00 in experiment [1] and 7.00 in experiment [2].

As to `COc1c(C)cnc(Cn2cc(C#CCCNC(C)(C)C)c3c(Cl)nc(N)nc32)c1C` [Example 20, 5-(4-tert-Butylamino-but-1-ynyl)-4-chloro-7-(4-methoxy-3,5-dimethyl-pyridin-2-ylmethyl) -7H-pyrrolo[2,3-d]pyrimidin-2-ylamine], the pIC50 is 7.64 in experiment [1] and 6.89 in experiment [2].

Take `COc1c(C)cnc(Cn2cc(C#CCCCNC(C)(C)C)c3c(Cl)nc(N)nc32)c1C` [Example 21, 5-(5-tert-Butylamino-pent-1-ynyl)-4-chloro-7-(4-methoxy-3,5-dimethyl-pyridin-2-ylmethyl) -7H-pyrrolo[2,3-d]pyrimidin-2-ylamine]: the results for the pIC50 in experiment [1] and in experiment [2] were 7.52 and 6.64, respectively.

Regarding `COc1c(C)cnc(Cn2cc(C#CCOC(=O)CN(C)C)c3c(Cl)nc(N)nc32)c1C` [Example 22, Dimethylamino-acetic acid 3-[2-amino-4-chloro-7-(4-methoxy-3,5-dimethyl-pyridin-2-ylmethyl)-7H-pyrrolo[2,3-d]pyrimidin-5-yl]-prop-2-ynyl ester], the pIC50 in experiment [1] was 7.70; in experiment [2], 6.70.

Regarding `COc1c(C)cnc(Cn2cc(C#CCCN3C(=O)c4ccccc4C3=O)c3c(Cl)nc(N)nc32)c1C` [H], the “potency index relative to 17-AAG” value in experiment [2] (cell line not specified, MCF7 and BT474 tested) was “more potent than 17-AAG”.
